From patent publication US4973576A, “Bisphophonic acid derivatives and pharmaceutical compositions containing the same” (Yamanouchi Pharmaceutical Co., Ltd., priority 1987, dated 1990)
Where “and” joins values, the source holds several entries; their conditions need not be identical. Identical values can stand only once.

What was measured:
[1] = system: hypercalcemia induced by administration of parathyroid hormone (PTH); experiment: Inhibitory effect on hypercalcemia induced by PTH in rats (serum Ca++); assay type: in vivo, male Wistar rats; details: mean ± S.E.
Description: Rats of hypercalcemia induced by administration of parathyroid hormone (hereinafter referred to as "PTH") were used, and the decrement of the serum calcium amount by administration of the compound was measured.
30 μg/kg of human 1-34 PTH (manufactured by Peptide Laboratory) which was dissolved in a 0.1% BSA (bovine serum albumin)-containing physiological saline (content of the PTH is 6 μg/ml) was intravenously injected in an amount of 30 μg/kg (5 ml/kg as the solution) to 5-week male Wistar rats which had been fasting for 20 hours. Only 0.1% BSA-containing physiological saline was injected to the normal control group in the same manner. 45 minutes after the PTH injection, the rats were etherized and then subjected to celiotomy, whereby the blood was collected from the abdominal cava with a vacuum blood-collecting tube. The blood collected was immediately centrifuged by 3000 rpm, at 4° C. for 10 minutes to isolate the serum. The ionized calcium (Ca^++) concentration in the serum was immediately measured with a Ca^++ meter (Sera 250, manufactured by Horiba Manufacturing Co.).
The compounds of the present invention were dissolved using sodium hydroxide and hydrochloric acid, in physiological saline (pH 7.4), for subcutaneous administration, in such amounts that the dose amounted to 2 ml/kg, and for oral administration, in distilled water (pH 7.4) so that the dose amounted to 5 ml/kg. They were administered 24 or 72 hours before the PTH injection. A physiological saline or a distilled water was administered to the normal control group and the control group, in the same manner. Salmon calcitonin (SCT, manufactured by Armour Co.) was dissolved in physiological saline so that the dose amounted to 2 ml/kg, and then subcutaneously administered 30 minutes before the PTH injection.
The results for each group were expressed in terms of mean±S.E. (standard error) and comparison was made among the groups by testing by one-way analysis of variance. The significance level was taken at 5%.

adjuvant arthritis [2] = experiment: Experiment (3)-I: therapeutic effect on adjuvant arthritis in rats; assay type: in vivo, male Lewis rats
Description: (§1) Specifically, for investigation of the anti-arthritic effect, experimental models of adjuvant arthritis which is resemble to rheumatoid arthritis in human were used in two test methods. In one method to test the therapeutic effect of the compounds, the compounds to be tested were administered to the animals already having the adjuvant arthritis. In the other method to test the prophylactic effect of the compounds, these were administered after the adjuvant administration, and the expression and progress of the resulting arthritis, if any, was observed.
0.1 ml of a suspension of dry dead cells of Mycobacterium butyricum as suspended in liquid paraffin in a proportion of 6 mg/ml was subcutaneously injected to male Lewis rats (7-week) in the tail. After 17 or 18 days, the thickness of the both hind paws was measured. One group comprising six rats in which the arthritis was noticeably observed was isolated. After the grouping day, the compound to be tested was subcutaneously or orally administered once a day for 14 days to the rats. Next day after the last administration, the thickness of the soles of the both hind legs was again measured.
(§2) For the Experiments (3)-I and (3)-II, the compounds of the present invention were dissolved, using sodium hydroxide and hydrochloric acid in physiological saline (pH 7.4), for subcutaneous administration, in such amount that the dose amounted to 2 ml/kg, and for oral administration, in distilled water (pH 7.4) so that the dose amounted to 5 ml/kg; and indometacin (as comparative drug) was suspended in 0.5% methyl cellulose solution so that the dose amounted to 5 ml/kg. Each rat was weighed at the first day of starting the administration of the compound to be tested and at the last day of the administration of the compound, and the difference of the weight there between (ΔB.W.) was obtained.
(§3) The results for each group were expressed in terms of mean ±S.E. (standard error) and comparison was made among the groups by testing by one-way analysis of variance. The significance level was taken at 5%.

[3] = system: immobilization-induced atrophy of bone; experiment: Inhibition of bone resorption: immobilization-induced (neurectomy) atrophy of bone in rats; assay type: in vivo, Wistar rats; details: for Left humerus Ashed weight / Left humerus Ashed weight / Dry weight / Left humerus Dry weight: 2 weeks; for Difference of Bone Ash Content (b): nontreated minus treated humerus ashed weight; for Difference of Bone Weight (a): nontreated minus treated humerus dry weight
adjuvant arthritis [4] = experiment: Experiment (3)-II: prophylactic effect on adjuvant arthritis in rats; assay type: in vivo, male Lewis rats; details: sc; for Thickness of Paw, Left: adjuvant-injected paw; for Thickness of Paw, Right: opposite paw
Description: as §1
0.05 ml of the suspension of dry dead bacilli of Mycobacterium butyricum as suspended in liquid paraffin in a proportion of 6 mg/ml was subcutaneously injected to male Lewis rats (6 to 7-week) in the left hind paw. After the adjuvant injection, the compound to be tested was administered to the rats once a day for 21 days. Next day after the last administration, the thickness of the both hind paws of the rats was measured.
as §2, §3

[5] = Acute toxicity test in rats; assay type: in vivo; details: sc, 10 mg/kg/day for continuous two weeks
Description: The compound of Manufacture Example 1 was subcutaneously injected to rats in an amount of 10 mg/kg/day for continuous two weeks, and no rats died.

[6] = po, 10 mg/kg once a day 14 days
[7] = po, 30 mg/kg once a day 14 days
[8] = po, 100 mg/kg once a day 14 days, 100 mg/kg
[9] = sc, 0.1 mg/kg once a day 14 days
[10] = sc, 0.3 mg/kg once a day 14 days
[11] = sc, 1.0 mg/kg once a day 14 days
[12] = sc, 3.0 mg/kg once a day 14 days
[13] = sc, 10 mg/kg once a day 14 days

Question: What does the source list for `Cc1cc(NC(P(=O)(O)O)P(=O)(O)O)no1` [Manufacture Example 1, [(5-methyl-3-isoxazolyl)amino]methylene-bis(phosphonic acid)]?
Answer: Serum Ca++ ([1]; oral, 30 mg/kg, 72 hours before PTH injection): 1.48 ± 0.01 m mole/liter; Serum Ca++ ([1]; oral, 100 mg/kg, 24 hours before PTH injection): 1.44 ± 0.02 m mole/liter; Serum Ca++ ([1]; oral, 100 mg/kg, 72 hours before PTH injection): 1.16 ± 0.03 m mole/liter; Serum Ca++ ([1]; oral, 300 mg/kg, 24 hours before PTH injection): 1.41 ± 0.01 m mole/liter; Serum Ca++ ([1]; sc, 0.3 mg/kg, 24 hours before PTH injection): 1.43 ± 0.02 m mole/liter; Serum Ca++ ([1]; sc, 1.0 mg/kg, 24 hours before PTH injection): 1.40 ± 0.01 m mole/liter; Serum Ca++ ([1]; sc, 3.0 mg/kg, 24 hours before PTH injection): 1.36 ± 0.02 m mole/liter; Thickness of Paw (average of right and left paws) (adjuvant arthritis [2]; [6]): 1435 ± 49 × 0.01 mm; ΔB.W. (adjuvant arthritis [2]; [6]): 23.3 ± 0.9 g; Thickness of Paw (average of right and left paws) (adjuvant arthritis [2]; [7]): 1296 ± 45 × 0.01 mm; ΔB.W. (adjuvant arthritis [2]; [7]): 32.8 ± 1.7 g; Thickness of Paw (average of right and left paws) (adjuvant arthritis [2]; [8]): 1131 ± 36 × 0.01 mm and 1083 ± 36 × 0.01 mm; ΔB.W. (adjuvant arthritis [2]; [8]): 50 ± 3 g and 43.3 ± 2.0 g; Thickness of Paw (average of right and left paws) (adjuvant arthritis [2]; [9]): 1258 ± 31 × 0.01 mm; ΔB.W. (adjuvant arthritis [2]; [9]): 40 ± 2 g; Thickness of Paw (average of right and left paws) (adjuvant arthritis [2]; [10]): 1102 ± 36 × 0.01 mm; ΔB.W. (adjuvant arthritis [2]; [10]): 50 ± 2 g; Thickness of Paw (average of right and left paws) (adjuvant arthritis [2]; [11]): 956 ± 36 × 0.01 mm; ΔB.W. (adjuvant arthritis [2]; [11]): 56 ± 4 g; Thickness of Paw (average of right and left paws) (adjuvant arthritis [2]; [12]): 974 ± 32 × 0.01 mm; ΔB.W. (adjuvant arthritis [2]; [12]): 56 ± 1 g; Left humerus Ashed weight ([3]; oral, 10 mg/kg): 54.9 ± 1.3 mg; Left humerus Ashed weight / Dry weight ([3]; oral, 10 mg/kg): 53.4 ± 0.3%; Left humerus Dry weight ([3]; oral, 10 mg/kg): 102.8 ± 2.2 mg; Left humerus Ashed weight ([3]; oral, 30 mg/kg): 61.0 ± 1.0 mg; Left humerus Ashed weight / Dry weight ([3]; oral, 30 mg/kg): 54.4 ± 0.3%; Left humerus Dry weight ([3]; oral, 30 mg/kg): 112.1 ± 1.4 mg; Left humerus Ashed weight ([3]; oral, 100 mg/kg): 68.9 ± 1.3 mg; Left humerus Ashed weight / Dry weight ([3]; oral, 100 mg/kg): 55.6 ± 0.2%; Left humerus Dry weight ([3]; oral, 100 mg/kg): 123.9 ± 2.3 mg; Left humerus Ashed weight ([3]; sc, 0.1 mg/kg): 64.9 ± 1.2 mg; Left humerus Ashed weight / Dry weight ([3]; sc, 0.1 mg/kg): 56.9 ± 0.1%; Left humerus Dry weight ([3]; sc, 0.1 mg/kg): 113.9 ± 2.0 mg; Left humerus Ashed weight ([3]; sc, 0.3 mg/kg): 65.4 ± 1.6 mg; Left humerus Ashed weight / Dry weight ([3]; sc, 0.3 mg/kg): 57.2 ± 0.3%; Left humerus Dry weight ([3]; sc, 0.3 mg/kg): 114.4 ± 2.6 mg; Left humerus Ashed weight ([3]; sc, 1.0 mg/kg): 70.1 ± 1.1 mg; Left humerus Ashed weight / Dry weight ([3]; sc, 1.0 mg/kg): 57.8 ± 0.4%; Left humerus Dry weight ([3]; sc, 1.0 mg/kg): 121.3 ± 2.1 mg; Difference of Bone Ash Content (b) ([3]; sc, 3 mg/kg once a day 14 days): 4.8 ± 0.5 mg; Difference of Bone Weight (a) ([3]; sc, 3 mg/kg once a day 14 days): 8.0 ± 1.0 mg; Difference of Bone Ash Content (b) [3, 13]: 1.7 ± 0.5 mg; Difference of Bone Weight (a) [3, 13]: 3.2 ± 0.7 mg; ΔB.W. (adjuvant arthritis [4]; 0.1 mg/kg once a day 21 days): 238 ± 2 g; Thickness of Paw, Left (adjuvant arthritis [4]; 0.1 mg/kg once a day 21 days): 1277 ± 19 × 0.01 mm; Thickness of Paw, Right (adjuvant arthritis [4]; 0.1 mg/kg once a day 21 days): 1279 ± 27 × 0.01 mm; ΔB.W. (adjuvant arthritis [4]; 0.3 mg/kg once a day 21 days): 239 ± 2 g; Thickness of Paw, Left (adjuvant arthritis [4]; 0.3 mg/kg once a day 21 days): 1158 ± 12 × 0.01 mm; Thickness of Paw, Right (adjuvant arthritis [4]; 0.3 mg/kg once a day 21 days): 1107 ± 25 × 0.01 mm; ΔB.W. (adjuvant arthritis [4]; 1.0 mg/kg once a day 21 days): 233 ± 3 g; Thickness of Paw, Left (adjuvant arthritis [4]; 1.0 mg/kg once a day 21 days): 1174 ± 14 × 0.01 mm; Thickness of Paw, Right (adjuvant arthritis [4]; 1.0 mg/kg once a day 21 days): 1110 ± 28 × 0.01 mm; mortality [5]: no rats died
